# Values joined by “and” are separate entries in the source; they are usually repeats but may differ in a detail not shown here. Equal entries are not always repeated. Active and inactive are the calls of the source.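 Rule for the calls: active = fitted curve reaches a 40% rise in fluorescent cells at or below the top valid dose; inactive = opposite-direction effect, or the rest.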
# System: not listed separately
# Assay: autofluorescent compounds in non-GFP fibroblasts, dose response, artefact control for X-chromosome reactivation project, imaging, mTEFS fibroblasts, cherry-pick (AID 743396);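 for % fluorescent cells increase: raw share of Hoechst-counted cells scored GFP positive without control normalization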
# Conditions: mTEFS fibroblasts autofluorescence, GFP-channel imaging, 3 days; at 19.5 µM (top of the series); cells pretreated with 5-aza-dC
row,SMILES,% fluorescent cells increase
1,COc1ccc2c3c([nH]c2c1)[C@@H](CO)N(Cc1cc(F)ccc1F)CC31CCN(C(C)=O)CC1,0% (inactive)
2,Cc1ccc(S(=O)(=O)NN2C(=O)/C(=C/c3ccccn3)SC2=S)cc1,0.042% (inactive)
3,Cc1ccc(C(=O)Cn2cncn2)cc1,-0.006% (inactive)
4,CCOC(=O)c1nn(-c2ccc3ccccc3c2)cc1O,0.04% (inactive)
5,Oc1ccc(Cl)cc1C=Nc1ccc2c3c(cccc13)CC2,0.216% (inactive)
6,O=[N+]([O-])c1ccc(S(=O)(=O)c2ccccc2)nc1,-0.004% (inactive)
7,CCCCCCCCN1C(=O)[C@H](CC(=O)N2CCSCC2)C[C@@]2(C(=O)OCC)CCCC=C12,0.056% (inactive)
8,O=C(COC(=O)c1ccc(NS(=O)(=O)c2cccs2)cc1O)NC1CCCCC1,0.547% (inactive)
9,O=C(CCC(=O)Nc1cccnc1)Nc1cccnc1,0.042% (inactive)
10,CC(=O)c1ccc(NC(=O)COC(=O)CCc2ccc(S(=O)(=O)N3CCOCC3)cc2)cc1,0.108% (inactive)
11,O=C(O)c1ccc(COc2ccccc2C=C2C(=O)c3ccccc3C2=O)cc1,-0.004% (inactive)
12,CN(C)C(=O)CN1CCN(Cc2nc(CC3CC3)no2)CC1,0.246% (inactive)
13,Nc1[nH]c(=O)nc(Nc2ccccc2)c1N=O,0% (inactive)
14,O=[N+]([O-])c1ccccc1-c1ccc(C(=S)N2CCN(c3ccccc3)CC2)o1,0.237% (inactive)
15,CO[C@@H]1CN(C)C(=O)c2ccc(NC(=O)Nc3cccc(Cl)c3)cc2OC[C@H](C)N(C(=O)Nc2c(C)noc2C)C[C@H]1C,0.367% (inactive)
16,CCN(CC(=O)Nc1sc2c(c1C#N)CCCC2)CC(=O)NC1CCS(=O)(=O)C1 (stereo not drawn),0.225% (inactive)
17,O=C(CC1CC1)N1CC(=O)N2[C@@H](CO)[C@H](c3ccc(C#Cc4ccc(F)cc4)cc3)[C@@H]2C1,-0.043% (inactive)
18,O=C(CSc1nc2ccccc2[nH]1)N/N=C/C=C/c1ccccc1[N+](=O)[O-],0.094% (inactive)

# System: mTEFS fibroblasts autofluorescence, GFP-channel imaging, 3 days
# Assay: as above
# Conditions: not given
row,SMILES,AC40
1,CC1=CC(=Cc2sc3ccccc3[n+]2C)C=C(C)O1,> 19.5 µM (inactive)

# Same assay, conditions: cells pretreated with 5-aza-dC
row,SMILES,AC40
1,COc1cc2c3nnc(-c4ccc(F)cc4)c-3cn(Cc3ccccc3)c2cc1OC,3.67 µM
2,Cc1cc(C)c2cc3c(N)c(C(=O)Nc4c(C)[nH]c(=O)[nH]c4=O)sc3nc2c1,> 19.5 µM (inactive)
3,N#C/C(=C/c1ccc(N2CCCCC2)o1)C(=O)NCCc1c[nH]c2ccccc12,5.61 µM
4,COC1=CC(=O)c2nc(Cl)ccc2C1=O,18.5 µM
5,CC(=O)[C@@]1(O)Cc2c(O)c3c(c(O)c2[C@H](O[C@H]2C[C@H](N)[C@H](O)[C@H](C)O2)C1)C(=O)c1ccccc1C3=O,> 2.1 µM (inactive)
6,N#C/C(=C/c1ccc(-c2ccc(S(N)(=O)=O)cc2)o1)c1nc2ccccc2s1,2.25 µM
7,CN(C)c1ccc(/C=C(/C#N)C(=O)NCc2ccccc2)o1,14.7 µM
8,C/C(=N\Nc1ncnc2sc(C)c(C)c12)c1ccccn1,1.55 µM
9,COc1cc2c3nnc(-c4ccccc4)c-3cn(Cc3ccccc3F)c2cc1OC,4.02 µM
10,COc1ccccc1-[n+]1c(C)cc(/C=C2\Sc3ccccc3N2C)cc1C,3.52 µM
11,CCN(CC)c1ccc(/C=C/c2cc(-c3ccccc3)c3ccccc3n2)cc1,12.8 µM
12,CC(C)(C)NC(=S)N/N=C\c1ccc(-c2ccc([N+](=O)[O-])cc2)o1,7.84 µM
13,O=S(=O)(Nc1cc2nc3ccccc3nc2n1Cc1ccccc1)c1ccc(Cl)cc1,> 19.5 µM (inactive)
14,O=C(NCc1ccccc1)c1cccc2c1C(=O)c1ccc(/C=C/c3ccccc3)cc1S2(=O)=O,15 µM
15,CC1CN(C(=O)/C=C/c2ccc([N+](=O)[O-])s2)CC(C)O1 (stereo not drawn),10.6 µM
16,COc1ccc(Cn2cc3c(-c4ccc(F)cc4)nnc-3c3cc(OC)c(OC)cc32)cc1,6.18 µM
17,COc1cc2c3nnc(-c4ccc(F)cc4)c-3cn(Cc3ccccc3F)c2cc1OC,2.46 µM
18,Cc1cc2oc3ccc(NCCCn4ccnc4)cc3c(=O)c2cc1C,19.2 µM
19,CN1/C(=C/C=C(C#N)C#N)C(C)(C)c2ccccc21,19.4 µM
20,Nc1c(C(=O)Nc2ccc(S(=O)(=O)N3CCCC3)cc2)sc2nc3cc4c(cc3cc12)CCC4,10.6 µM
21,Cc1cccc(-c2cccc3[nH]c4c(c23)CCN2C(=O)[C@H]3[C@H](C)ON(C)[C@H]3C[C@@H]42)c1,14.7 µM
22,CCCCCC[n+]1ccccc1/C=C/c1ccc(N(C)C)cc1,> 19.5 µM (inactive)
23,CN(C)CCCN1C(=O)c2cccc3c([N+](=O)[O-])ccc(c23)C1=O,> 19.5 µM (inactive)
24,CCCCN(C)C1=CC2=CC(=C(C#N)C#N)CCC2CC1 (stereo not drawn),3.44 µM
25,CC(NC(=O)/C(C#N)=C/c1ccc([N+](=O)[O-])o1)c1ccccc1 (stereo not drawn),> 19.5 µM (inactive)
26,CC(=NNc1nc2ccccc2o1)c1cc2ccccc2cn1,8.99 µM
27,Cc1oc2ccc(NS(=O)(=O)c3cccc4cccnc34)cc2c1C(=O)OC(C)C,4.77 µM

row,SMILES,AC40
1,Cc1ccc(-c2cn3nc(-c4ccccc4)c(-c4ccccc4)nc3n2)cc1,7.88 µM
2,C[n+]1c2cc(N)ccc2cc2ccc(N)cc21,0.522 µM and 0.378 µM
3,Cc1cc(N/N=C/c2ccc([N+](=O)[O-])o2)nc2ccccc12,13.8 µM
4,COc1ccc2c(n1)Sc1nc3ccccc3nc1N2,12.5 µM
5,CCN1/C(=C/c2ccc3cc(C)cc(C)c3[n+]2CC)Sc2cc(C)ccc21,10.4 µM
6,COc1ccc(-[n+]2c(C)cc(/C=C3\Sc4ccccc4N3C)cc2C)cc1,1.58 µM
7,Nc1c(Br)cc2c3c(cccc13)-c1ccccc1-2,> 19.5 µM (inactive)
8,CC1=NN(c2nc(N)nc(/C(C#N)=C/c3ccc([N+](=O)[O-])o3)n2)C(C)(C)C1,4.78 µM
9,C=CCN1C(=O)[C@@H]2Cc3c([nH]c4ccccc34)C(c3cc(OC)c(OC)c(OC)c3)N2C1=S (stereo partly drawn),15.5 µM
10,CCN(CC)c1ccc2cc(C(=O)c3cccs3)c(=O)oc2c1,11.3 µM
11,Cc1ccc(NC(=O)/C=C/c2ccc([N+](=O)[O-])s2)cc1,4.44 µM
12,Nc1ccc2c3c(cccc13)-c1ccccc1-2,1.49 µM
13,COc1ccc(N(C)S(=O)(=O)c2cccc(C(=O)NCC(c3cccs3)N(C)C)c2)cc1 (stereo not drawn),13.9 µM
14,COc1ccc2nc(C)cc(NCc3ccc(F)cc3)c2c1,4.85 µM
15,N#CC(C#N)=C1C=C2C=C(N3CCCCCC3)CCC2CC1 (stereo not drawn),6.6 µM
16,CCN1C(=O)[C@@H]2Cc3c([nH]c4ccccc34)C(c3cc(OC)c(OC)c(OC)c3)N2C1=S (stereo partly drawn),> 19.5 µM (inactive)
17,Cc1[nH]c2ccccc2c1/C=N/Nc1ccc([N+](=O)[O-])cc1,12.2 µM
18,Cc1nnc(N2C(=O)c3cccc4c([N+](=O)[O-])ccc(c34)C2=O)s1,> 19.5 µM (inactive)
19,Cc1ccc2c(c1)c(/C=C/c1cc[n+](C)cc1)c(C)n2C,10.1 µM
20,N#Cc1ccccc1Cn1cc(/C=N/Nc2ccc([N+](=O)[O-])cn2)c2ccccc21,16.1 µM
21,Cc1ccc(Cl)c2c(N=Nc3ccccc3)c(O)[nH]c12,> 19.5 µM (inactive)
22,Oc1ccc(/C=N/Nc2ccnc3cc(Cl)ccc23)c(O)c1,> 19.5 µM (inactive)
23,COc1cccc(C(=O)c2c(-c3ccccc3)ncc3cc(OC)c(OC)cc23)c1,19.4 µM
24,Nc1c(C(=O)c2cccs2)sc2nsc(SCCN3CCCCC3)c12,2.03 µM
25,Cc1n[nH]c(=S)n1/N=C/c1ccc(-c2ccc(Cl)cc2)o1,> 19.5 µM (inactive)
26,O=[N+]([O-])c1ccc(/C=C/C2=NN(c3ccccc3)C(c3ccco3)C2)cc1 (stereo not drawn),3.37 µM
27,N#C/C(=C/c1ccc(-c2ccccc2)o1)c1nc(-c2cccs2)cs1,7.35 µM

row,SMILES,AC40
1,Cn1cc(C2=C(c3ccc(Cl)cc3Cl)C(=O)NC2=O)c2ccccc21,12.7 µM
2,C/C(CC(=O)Nc1ccc(C)c(Cl)c1)=N\NC(=O)Cc1ccccc1,18.1 µM
3,CCN(CC)C1=CC2=CC(=C(C#N)C#N)CCC2CC1 (stereo not drawn),> 19.5 µM (inactive)
4,O=[N+]([O-])c1ccc(N2N=C(c3ccccc3)CC2c2ccccc2O)cc1 (stereo not drawn),14.1 µM
5,Cc1cccc2cc3c(N)c(C(=O)N4CCCc5ccccc54)sc3nc12,10.2 µM
6,Cc1c2c(cc3c1[nH]c1ccccc13)C=NCC2,15.8 µM
7,C[C@@H]1CCCCO[C@H](CN(C)C(=O)Nc2ccc(C(F)(F)F)cc2)[C@H](C)CN([C@H](C)CO)C(=O)c2cc(NC(=O)CCC(F)(F)F)ccc2O1,17.4 µM
8,COc1ccc(N2CCN(C(=O)c3cc4c(s3)-c3ccccc3OC4)CC2)cc1,> 19.5 µM (inactive)
9,CC(=O)Nc1cc2c3c(cccc3c1)-c1ccccc1-2,2.19 µM
10,CCN(CC)c1ccc2cc(-c3nc(-c4ccc(OC)cc4)cs3)c(=O)oc2c1,0.0781 µM
11,O=[N+]([O-])c1ccc(N/N=C/c2ccc[nH]2)cc1,> 19.5 µM (inactive)
12,Cc1ccccc1-c1ccc(C2[C@@H]3CN(Cc4cocn4)C[C@H]2N3)cc1 (stereo partly drawn),> 2.35 µM (inactive)
13,N#Cc1c(-c2ccccc2F)cc(C2CC2)nc1SCC(=O)c1cccs1,9.82 µM
14,CCN1/C(=C/c2ccc3cc(C)ccc3[n+]2CC)Sc2cc(C)ccc21,6.21 µM
15,Cc1ccc2cc3c(N)c(C(=O)Nc4c(C)[nH]c(=O)[nH]c4=O)sc3nc2c1,> 19.5 µM (inactive)
16,O=[N+]([O-])c1ccc(C2=NN(c3ccccc3)C(c3ccco3)C2)cc1 (stereo not drawn),2.59 µM
17,Cc1cc(C)cc(NC(=O)/C=C/c2ccc([N+](=O)[O-])s2)c1,9.04 µM
18,CCN1/C(=C\c2ccc3cc(C)ccc3[n+]2CC)Sc2cc(C)c(C)cc21,15.7 µM
19,COc1cc2c3nnc(-c4ccc(F)cc4)c-3cn(Cc3cccc(C)c3)c2cc1OC,3.63 µM
20,CCC(CO)[n+]1c(C)cc(/C=C2\Sc3ccccc3N2Cc2ccccc2)cc1C (stereo not drawn),7.28 µM
21,CCOC(=O)/C=c1\s/c(=C\c2ccc3cc(OC)ccc3c2)c(=O)n1CC(=O)NCc1ccc2c(c1)OCO2,4.43 µM
22,CC[n+]1c(/C=C/C=C/N(C(C)=O)c2ccccc2)sc2cc(OC)ccc21,2.73 µM
23,CCCCNc1ccc2c3c(cccc13)C(=O)N(CCCC)C2=O,4.11 µM
24,CC(=O)Nc1sc(/C(C#N)=C/c2ccc(Cl)c(Cl)c2)nc1-c1ccc(C)cc1,3.55 µM
25,CCOC(=O)C1=C(O)/C(=C/c2cc(OC)c(O)c(OC)c2)SC1=Nc1ccc(OC)cc1,> 19.5 µM (inactive)
